Source: PMC11036874, “In vitro characterization of [^125I]HY-3-24, a selective ligand for the dopamine D3 receptor” (Frontiers in Neuroscience, 2024)

Assays:
Experiment in all cases: PDSP binding screen
Muscarinic M2 = target: T1, Muscarinic M2 (Homo sapiens, UniProt P08172); details: HCl salt
T1 construct: Psychoactive Drug Screening Program (PDSP)
Description: (§1) The binding of HY-3-24 to various GPCRs was investigated through comprehensive screening by Psychoactive Drug Screening Program (PDSP) (Supplementary Table S1) ([Besnard et al., 2012]). These GPCRs included major neurotransmitter receptors family (e.g., dopamine, serotonin, histamine, opioid, muscarinic, adrenergic, sigma receptors, ɤ-amino-butyric acid type A, and benzodiazepine receptors) and transporters (e.g., dopamine, norepinephrine, and serotonin transporter).

Muscarinic M3 = target: T2, Muscarinic M3 (Homo sapiens, UniProt P20309); details: HCl salt
T2 construct: Psychoactive Drug Screening Program (PDSP)
Description: as §1

Muscarinic M4 = target: T3, Muscarinic M4 (Homo sapiens, UniProt P08173); details: HCl salt
T3 construct: Psychoactive Drug Screening Program (PDSP)
Description: as §1

Muscarinic M5 = target: T4, Muscarinic M5 (Homo sapiens, UniProt P08912); details: HCl salt
T4 construct: Psychoactive Drug Screening Program (PDSP)
Description: as §1

adrenergic alpha2A = target: T5, adrenergic alpha2A (Homo sapiens, UniProt P08913); details: HCl salt
T5 construct: Psychoactive Drug Screening Program (PDSP)
Description: as §1

adrenergic alpha2B = target: T6, adrenergic alpha2B (Homo sapiens, UniProt P18089); details: HCl salt
T6 construct: Psychoactive Drug Screening Program (PDSP)
Description: as §1

adrenergic alpha2C = target: T7, adrenergic alpha2C (Homo sapiens, UniProt P18825); details: HCl salt
T7 construct: Psychoactive Drug Screening Program (PDSP)
Description: as §1

adrenergic beta2 = target: T8, adrenergic beta2 (Homo sapiens, UniProt P07550); details: HCl salt
T8 construct: Psychoactive Drug Screening Program (PDSP)
Description: as §1

[1] = target: benzodiazepine rat brain site; details: HCl salt
Description: as §1

benzodiazepine receptor = details: HCl salt
Description: as §1

dopamine D1 = dopamine D1 (Homo sapiens, UniProt P21728); details: HCl salt
Description: as §1

dopamine D2 = dopamine D2 (Homo sapiens, UniProt P14416); details: HCl salt, [3H]N-methylspiperone
Description: as §1

dopamine D3 = dopamine D3 (Homo sapiens, UniProt P35462); details: HCl salt, [3H]N-methylspiperone
Description: as §1

dopamine D4 = dopamine D4 (Homo sapiens, UniProt P21917); details: HCl salt
Description: as §1

[2] = target: T9, dopamine active transporter (Homo sapiens, UniProt Q01959); details: HCl salt
T9 construct: Psychoactive Drug Screening Program (PDSP)
Description: as §1

histamine H1 = target: T10, histamine H1 (Homo sapiens, UniProt P35367); details: HCl salt
T10 construct: Psychoactive Drug Screening Program (PDSP)
Description: as §1

[3] = target: T11, norepinephrine transporter (Homo sapiens, UniProt P23975); details: HCl salt
T11 construct: Psychoactive Drug Screening Program (PDSP)
Description: as §1

opioid KOR = target: T12, opioid KOR (Homo sapiens, UniProt P41145); details: HCl salt
T12 construct: Psychoactive Drug Screening Program (PDSP)
Description: as §1

serotonin 5-HT1D = serotonin 5-HT1D (Homo sapiens, UniProt P28221); details: HCl salt
Description: as §1

serotonin 5-HT2A = serotonin 5-HT2A (Homo sapiens, UniProt P28223); details: HCl salt
Description: as §1

serotonin 5-HT2B = serotonin 5-HT2B (Homo sapiens, UniProt P41595); details: HCl salt
Description: as §1

serotonin 5-HT2C = serotonin 5-HT2C (Homo sapiens, UniProt P28335); details: HCl salt
Description: as §1

serotonin 5-HT3 = serotonin 5-HT3 (Homo sapiens, UniProt P46098); details: HCl salt
Description: as §1

serotonin 5-HT6 = target: T13, serotonin 5-HT6 (Homo sapiens, UniProt P50406); details: HCl salt
T13 construct: Psychoactive Drug Screening Program (PDSP)
Description: as §1

serotonin transporter = target: T14, serotonin transporter (Homo sapiens, UniProt P31645); details: HCl salt
T14 construct: Psychoactive Drug Screening Program (PDSP)
Description: as §1

sigma1 = target: T15, sigma1 (Homo sapiens, UniProt Q99720); details: HCl salt
T15 construct: Psychoactive Drug Screening Program (PDSP)
Description: as §1

sigma2 = target: T16, sigma2 (Homo sapiens, UniProt Q5BJF2); details: HCl salt
T16 construct: Psychoactive Drug Screening Program (PDSP)
Description: as §1

[4] = target: ɤ-aminobutyric acid type A; details: HCl salt
Description: as §1

T2 sequence (P20309 whole entry): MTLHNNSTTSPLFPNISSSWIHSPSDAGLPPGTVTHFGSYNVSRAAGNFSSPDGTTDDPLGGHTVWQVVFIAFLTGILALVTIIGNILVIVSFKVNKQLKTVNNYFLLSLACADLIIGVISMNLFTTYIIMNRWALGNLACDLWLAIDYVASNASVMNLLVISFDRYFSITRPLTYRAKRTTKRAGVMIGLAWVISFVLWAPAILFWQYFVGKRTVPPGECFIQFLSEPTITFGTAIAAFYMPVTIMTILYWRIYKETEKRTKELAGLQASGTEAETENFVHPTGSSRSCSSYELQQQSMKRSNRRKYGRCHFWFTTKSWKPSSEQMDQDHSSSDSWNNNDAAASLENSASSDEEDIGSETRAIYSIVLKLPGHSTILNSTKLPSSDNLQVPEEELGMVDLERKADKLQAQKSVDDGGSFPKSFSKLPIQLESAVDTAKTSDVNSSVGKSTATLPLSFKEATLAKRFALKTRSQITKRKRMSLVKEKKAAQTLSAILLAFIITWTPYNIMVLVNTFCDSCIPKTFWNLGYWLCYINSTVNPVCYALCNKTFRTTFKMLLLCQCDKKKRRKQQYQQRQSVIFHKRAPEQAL
T13 sequence (P50406 whole entry): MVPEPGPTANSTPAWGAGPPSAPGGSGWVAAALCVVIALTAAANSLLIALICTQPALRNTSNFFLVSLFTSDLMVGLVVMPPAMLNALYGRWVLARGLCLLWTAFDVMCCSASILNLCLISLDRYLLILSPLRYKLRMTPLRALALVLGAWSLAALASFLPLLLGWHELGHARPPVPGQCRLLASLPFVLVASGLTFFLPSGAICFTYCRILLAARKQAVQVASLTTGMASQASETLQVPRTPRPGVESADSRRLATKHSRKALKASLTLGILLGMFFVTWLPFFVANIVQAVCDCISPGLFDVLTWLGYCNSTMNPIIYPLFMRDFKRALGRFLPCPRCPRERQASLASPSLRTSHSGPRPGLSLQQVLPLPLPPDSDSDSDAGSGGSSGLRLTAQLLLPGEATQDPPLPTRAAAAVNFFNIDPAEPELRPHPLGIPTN
serotonin 5-HT2C, sequence (P28335 33-458): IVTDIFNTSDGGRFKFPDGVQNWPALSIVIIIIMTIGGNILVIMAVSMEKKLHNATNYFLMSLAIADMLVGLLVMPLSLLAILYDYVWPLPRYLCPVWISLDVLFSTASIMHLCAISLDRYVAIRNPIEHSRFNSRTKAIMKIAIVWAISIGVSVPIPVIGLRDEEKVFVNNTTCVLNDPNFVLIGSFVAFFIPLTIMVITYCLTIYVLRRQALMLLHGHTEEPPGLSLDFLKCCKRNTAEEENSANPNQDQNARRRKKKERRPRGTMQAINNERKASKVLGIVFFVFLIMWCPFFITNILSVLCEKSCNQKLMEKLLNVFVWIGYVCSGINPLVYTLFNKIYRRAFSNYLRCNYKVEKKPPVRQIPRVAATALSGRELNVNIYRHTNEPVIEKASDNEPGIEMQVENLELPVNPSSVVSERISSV
serotonin 5-HT2A, sequence (P28223 whole entry): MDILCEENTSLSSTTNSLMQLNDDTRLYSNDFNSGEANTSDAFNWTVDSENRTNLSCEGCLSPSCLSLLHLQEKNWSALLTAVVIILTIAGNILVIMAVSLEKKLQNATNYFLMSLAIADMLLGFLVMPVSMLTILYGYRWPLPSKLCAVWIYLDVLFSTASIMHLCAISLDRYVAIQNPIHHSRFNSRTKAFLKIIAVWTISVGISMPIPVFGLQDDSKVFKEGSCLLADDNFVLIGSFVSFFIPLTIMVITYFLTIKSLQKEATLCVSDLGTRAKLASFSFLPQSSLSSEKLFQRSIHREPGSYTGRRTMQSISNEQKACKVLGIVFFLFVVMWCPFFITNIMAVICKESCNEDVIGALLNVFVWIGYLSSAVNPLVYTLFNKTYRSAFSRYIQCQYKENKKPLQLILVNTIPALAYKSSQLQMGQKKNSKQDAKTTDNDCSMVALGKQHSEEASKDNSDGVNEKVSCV
dopamine D2, sequence (P14416 whole entry): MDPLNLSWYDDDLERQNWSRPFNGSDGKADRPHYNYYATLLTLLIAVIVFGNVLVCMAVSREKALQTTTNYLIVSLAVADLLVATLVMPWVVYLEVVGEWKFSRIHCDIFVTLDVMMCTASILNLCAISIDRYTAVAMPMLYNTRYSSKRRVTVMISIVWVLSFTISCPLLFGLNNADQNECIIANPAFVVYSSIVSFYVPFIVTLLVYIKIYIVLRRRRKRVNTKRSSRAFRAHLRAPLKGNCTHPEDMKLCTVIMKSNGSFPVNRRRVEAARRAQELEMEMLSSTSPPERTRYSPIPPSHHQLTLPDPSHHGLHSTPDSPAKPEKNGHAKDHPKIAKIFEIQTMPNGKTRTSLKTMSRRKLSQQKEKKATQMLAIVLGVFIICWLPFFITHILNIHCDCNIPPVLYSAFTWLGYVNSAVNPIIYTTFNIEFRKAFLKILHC
dopamine D3, sequence (P35462 whole entry): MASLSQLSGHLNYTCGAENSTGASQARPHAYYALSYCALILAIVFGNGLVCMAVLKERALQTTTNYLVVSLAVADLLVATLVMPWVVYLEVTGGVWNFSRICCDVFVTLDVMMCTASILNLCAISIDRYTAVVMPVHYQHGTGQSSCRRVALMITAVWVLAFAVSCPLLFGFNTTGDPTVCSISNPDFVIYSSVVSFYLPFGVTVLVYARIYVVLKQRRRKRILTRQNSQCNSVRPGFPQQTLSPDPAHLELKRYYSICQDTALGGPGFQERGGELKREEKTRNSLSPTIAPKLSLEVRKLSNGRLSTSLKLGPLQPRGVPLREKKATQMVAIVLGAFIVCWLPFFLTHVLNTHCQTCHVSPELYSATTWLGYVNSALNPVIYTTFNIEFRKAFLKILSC
T14 sequence (P31645 whole entry): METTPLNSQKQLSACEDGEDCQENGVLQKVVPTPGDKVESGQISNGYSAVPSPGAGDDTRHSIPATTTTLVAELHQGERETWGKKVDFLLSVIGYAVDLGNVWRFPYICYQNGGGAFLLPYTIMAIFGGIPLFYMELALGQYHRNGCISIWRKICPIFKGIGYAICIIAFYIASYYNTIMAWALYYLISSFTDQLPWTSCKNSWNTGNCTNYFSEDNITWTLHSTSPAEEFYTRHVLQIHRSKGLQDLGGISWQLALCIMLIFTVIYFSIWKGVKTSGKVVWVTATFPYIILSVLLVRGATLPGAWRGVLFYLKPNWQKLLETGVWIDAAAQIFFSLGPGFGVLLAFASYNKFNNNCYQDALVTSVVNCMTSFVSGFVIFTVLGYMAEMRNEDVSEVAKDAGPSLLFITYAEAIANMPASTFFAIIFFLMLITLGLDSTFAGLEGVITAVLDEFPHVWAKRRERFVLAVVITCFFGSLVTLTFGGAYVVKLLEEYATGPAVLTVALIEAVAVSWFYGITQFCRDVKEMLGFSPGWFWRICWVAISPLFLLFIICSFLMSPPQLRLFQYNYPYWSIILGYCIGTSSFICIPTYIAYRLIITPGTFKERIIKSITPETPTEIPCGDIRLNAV
T15 sequence (Q99720 whole entry): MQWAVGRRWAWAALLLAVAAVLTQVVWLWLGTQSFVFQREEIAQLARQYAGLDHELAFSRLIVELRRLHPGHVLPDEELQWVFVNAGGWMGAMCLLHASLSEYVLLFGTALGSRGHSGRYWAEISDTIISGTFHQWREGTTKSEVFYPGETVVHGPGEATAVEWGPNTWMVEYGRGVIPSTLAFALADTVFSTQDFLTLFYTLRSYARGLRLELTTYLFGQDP
T3 sequence (P08173 whole entry): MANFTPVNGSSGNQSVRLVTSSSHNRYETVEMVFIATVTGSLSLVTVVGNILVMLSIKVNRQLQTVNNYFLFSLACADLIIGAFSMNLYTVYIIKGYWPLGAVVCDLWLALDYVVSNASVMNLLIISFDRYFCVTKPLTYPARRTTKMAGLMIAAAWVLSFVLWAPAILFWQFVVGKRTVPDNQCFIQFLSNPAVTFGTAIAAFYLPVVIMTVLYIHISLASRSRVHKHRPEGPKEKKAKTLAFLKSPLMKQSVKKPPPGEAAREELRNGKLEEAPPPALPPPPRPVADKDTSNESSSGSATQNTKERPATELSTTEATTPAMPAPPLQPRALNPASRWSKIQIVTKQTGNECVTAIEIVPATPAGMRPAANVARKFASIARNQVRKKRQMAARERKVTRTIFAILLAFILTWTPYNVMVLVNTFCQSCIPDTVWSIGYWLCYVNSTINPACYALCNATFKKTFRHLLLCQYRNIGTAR
serotonin 5-HT1D, sequence (P28221 whole entry): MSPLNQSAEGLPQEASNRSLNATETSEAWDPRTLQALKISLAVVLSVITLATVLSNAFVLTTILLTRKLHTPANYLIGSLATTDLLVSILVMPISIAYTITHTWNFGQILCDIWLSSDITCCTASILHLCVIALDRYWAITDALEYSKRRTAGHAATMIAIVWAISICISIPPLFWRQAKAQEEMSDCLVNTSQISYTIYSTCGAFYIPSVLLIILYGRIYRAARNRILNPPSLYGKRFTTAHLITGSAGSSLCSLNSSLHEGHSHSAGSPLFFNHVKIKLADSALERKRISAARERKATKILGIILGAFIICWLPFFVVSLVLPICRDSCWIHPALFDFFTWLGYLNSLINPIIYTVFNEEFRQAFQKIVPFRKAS
serotonin 5-HT3, sequence (P46098 24-478): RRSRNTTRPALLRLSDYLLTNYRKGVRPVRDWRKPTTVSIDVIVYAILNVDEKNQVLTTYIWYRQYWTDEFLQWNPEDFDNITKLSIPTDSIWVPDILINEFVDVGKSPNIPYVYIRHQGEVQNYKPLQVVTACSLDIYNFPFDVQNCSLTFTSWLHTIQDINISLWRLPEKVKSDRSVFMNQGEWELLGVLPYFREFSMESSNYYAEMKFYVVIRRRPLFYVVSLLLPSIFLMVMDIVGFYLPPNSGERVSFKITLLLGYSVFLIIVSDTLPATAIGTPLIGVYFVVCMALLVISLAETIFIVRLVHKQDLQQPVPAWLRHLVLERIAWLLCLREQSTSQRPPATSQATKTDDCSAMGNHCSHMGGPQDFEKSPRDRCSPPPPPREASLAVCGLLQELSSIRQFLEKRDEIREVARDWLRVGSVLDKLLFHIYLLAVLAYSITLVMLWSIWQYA

## CCN(CCCNC(=O)c1ccc(-c2ccncc2)cc1)CCNC(=O)c1cc(I)cc(OC)c1OC [HY-3-24, N-(2-(Ethyl(3-(4-(pyridin-4-yl)benzamido)propyl)amino)ethyl)-5-iodo-2,3-dimethoxybenzamide]
Muscarinic M2
  Ki: 832 nM
Muscarinic M3
  Ki: 1780 nM
Muscarinic M4
  Ki: 544 nM
Muscarinic M5
  Ki: 118 nM
Adrenergic alpha2A
  Ki: 2150 nM
Adrenergic alpha2B
  Ki: 1070 nM
Adrenergic alpha2C
  Ki: 1900 nM
Adrenergic beta2
  Ki: 5830 nM
[1]
  Ki benzodiazepine rat brain site: N.A. (not active, less than 50% inhibition in primary binding assays at 10 µM)
Benzodiazepine receptor
  Ki: 5640 nM
Dopamine D1
  Ki D1: N.A. (not active, less than 50% inhibition in primary binding assays at 10 µM)
Dopamine D2
  Ki: 43 nM
Dopamine D3
  Ki: 1.2 nM
Dopamine D4
  Ki: 1860 nM
[2]
  Ki: 1130 nM
Histamine H1
  Ki: 244 nM
[3]
  Ki: 5950 nM
Opioid KOR
  Ki: 1550 nM
Serotonin 5-HT1D
  Ki: 1690 nM
Serotonin 5-HT2A
  Ki: 310 nM
Serotonin 5-HT2B
  Ki: 38 nM
Serotonin 5-HT2C
  Ki: 613 nM
Serotonin 5-HT3
  Ki: 904 nM
Serotonin 5-HT6
  Ki: 1040 nM
Serotonin transporter
  Ki: 677 nM
sigma1
  Ki: 1950 nM
sigma2
  Ki: 2310 nM
[4]
  Ki: 1120 nM
